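A five-concentration, 48-hour dose response in 96-well plates underlies each endpoint, interpolated linearly between surrounding concentrations. Abbreviation: GI50, concentration required for 50% inhibition of growth.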 The source made the active and inactive calls. Cut-off read from the data, not from the text of the source: active = GI50 up to about 1.1 µM and inactive = higher.
Legend:
Test in all cases: growth of human tumour cells (NCI), 48 h
SNB-75 = tested on: SNB-75
HCC 2998 = tested on: HCC 2998
HT-29 = tested on: HT-29
DMS-273 = tested on: DMS-273
HOP-18 = tested on: HOP-18
HOP-92 = tested on: HOP-92
Malme-3M = tested on: Malme-3M
LXFL 529 = tested on: LXFL 529
XF498 = tested on: XF498
DLD-1 = tested on: DLD-1
HL-60 = tested on: HL-60
M19-MEL = tested on: M19-MEL
DMS-114 = tested on: DMS-114
A549 = tested on: A549
KM-20L2 = tested on: KM-20L2
RPMI-8226 = tested on: RPMI-8226
786-0 = tested on: 786-0
SK-MEL-2 = tested on: SK-MEL-2
SK-OV-3 = tested on: SK-OV-3
COLO 205 = tested on: COLO 205
NCI-H226 = tested on: NCI-H226
K562 = tested on: K562
SN12C = tested on: SN12C
KM12 = tested on: KM12
M14 = tested on: M14
A498 = tested on: A498
IGROV-1 = tested on: IGROV-1
HCT-116 = tested on: HCT-116
U-251 = tested on: U-251
HCT-15 = tested on: HCT-15
HOP-62 = tested on: HOP-62
OVCAR-5 = tested on: OVCAR-5
SF-295 = tested on: SF-295
SW-620 = tested on: SW-620
OVCAR-8 = tested on: OVCAR-8
NCI-H460 = tested on: NCI-H460
SNB-78 = tested on: SNB-78
UACC-257 = tested on: UACC-257
SK-MEL-28 = tested on: SK-MEL-28
SNB-19 = tested on: SNB-19
NCI-H522 = tested on: NCI-H522
TK-10 = tested on: TK-10
MOLT-4 = tested on: MOLT-4
UO-31 = tested on: UO-31
SF-539 = tested on: SF-539
ACHN = tested on: ACHN
NCI-H23 = tested on: NCI-H23
EKVX = tested on: EKVX
SF-268 = tested on: SF-268
RXF 631 = tested on: RXF 631
OVCAR-4 = tested on: OVCAR-4
OVCAR-3 = tested on: OVCAR-3
UACC-62 = tested on: UACC-62
CAKI-1 = tested on: CAKI-1
SK-MEL-5 = tested on: SK-MEL-5
CCRF-CEM = tested on: CCRF-CEM

## Nn1c(-c2ccccc2Cl)nc2ccccc2c1=O
SNB-75
  GI50: > 100 µM (inactive)
HCC 2998
  GI50: > 100 µM (inactive)
HT-29
  GI50: > 100 µM (inactive)
DMS-273
  GI50: > 100 µM (inactive)
HOP-18
  GI50: 44.8 µM (inactive)
HOP-92
  GI50: > 100 µM (inactive)
Malme-3M
  GI50: 83.8 µM (inactive)
LXFL 529
  GI50: > 100 µM (inactive)
XF498
  GI50: > 100 µM (inactive)
DLD-1
  GI50: > 100 µM (inactive)
HL-60
  GI50: > 100 µM (inactive)
M19-MEL
  GI50: > 100 µM (inactive)
DMS-114
  GI50: > 100 µM (inactive)
A549
  GI50: > 100 µM (inactive)
KM-20L2
  GI50: > 100 µM (inactive)
RPMI-8226
  GI50: > 100 µM (inactive)
786-0
  GI50: > 100 µM (inactive)
SK-MEL-2
  GI50: > 100 µM (inactive)
SK-OV-3
  GI50: > 100 µM (inactive)
COLO 205
  GI50: > 100 µM (inactive)
NCI-H226
  GI50: 57 µM (inactive)
K562
  GI50: > 100 µM (inactive)
SN12C
  GI50: > 100 µM (inactive)
KM12
  GI50: > 100 µM (inactive)
M14
  GI50: > 100 µM (inactive)
A498
  GI50: > 100 µM (inactive)
IGROV-1
  GI50: > 100 µM (inactive)
HCT-116
  GI50: > 100 µM (inactive)
U-251
  GI50: > 100 µM (inactive)
HCT-15
  GI50: > 100 µM
HOP-62
  GI50: > 100 µM (inactive)
OVCAR-5
  GI50: > 100 µM (inactive)
SF-295
  GI50: > 100 µM (inactive)
SW-620
  GI50: > 100 µM (inactive)
OVCAR-8
  GI50: > 100 µM (inactive)
NCI-H460
  GI50: > 100 µM (inactive)
SNB-78
  GI50: > 100 µM (inactive)
UACC-257
  GI50: > 100 µM (inactive)
SK-MEL-28
  GI50: > 100 µM (inactive)
SNB-19
  GI50: > 100 µM (inactive)
NCI-H522
  GI50: > 100 µM (inactive)
TK-10
  GI50: > 100 µM (inactive)
MOLT-4
  GI50: > 100 µM (inactive)
UO-31
  GI50: > 100 µM (inactive)
SF-539
  GI50: > 100 µM (inactive)
ACHN
  GI50: > 100 µM (inactive)
NCI-H23
  GI50: > 100 µM (inactive)
EKVX
  GI50: > 100 µM (inactive)
SF-268
  GI50: > 100 µM (inactive)
RXF 631
  GI50: > 100 µM (inactive)
OVCAR-4
  GI50: > 100 µM (inactive)
OVCAR-3
  GI50: > 100 µM (inactive)
UACC-62
  GI50: > 100 µM (inactive)
CAKI-1
  GI50: > 100 µM (inactive)
SK-MEL-5
  GI50: > 100 µM (inactive)
CCRF-CEM
  GI50: > 100 µM (inactive)

Source: ChEMBL document CHEMBL1201862, “PubChem BioAssay data set” (2004)
